From patent US10046150B2, “Lysine delivery systems for blood coagulation” (Park City Bio, LLC, priority 2013, dated 2018)

Test system: nose bleed
Assay: treatment of a nose bleed with a nose plug (tissue, gauze or absorbent body) carrying lysine powder
Assay type: in vivo
Description: As a control, regular tissue and regular gauze were used to treat a nose bleed by rolling or otherwise fashioning a nose plug from the materials, and no lysine was added. The tissues and gauze appear to absorb the blood, but the blood continues to flow. In some instances, the blood flow can be significant and require a large number of sequential tissues or gauze. Nose bleeds treated with tissues can last 10 minutes or more up to an hour or longer when the bleed is significant. In some instances a nose bleed can be from both nostrils and both nostrils have to be plugged with a nose plug.
The nose bleed often stops within 1 minute when the tissue includes lysine, compared a long period when only tissues are used. A significant bleed was stopped within 5 minutes when lysine was included in the gauze. […] Available lysine was present after the nose bleed was treated to stop blood flow. […] Accordingly, substantially less than 500 mg lysine (E.g., 5 mg) is needed to stop bleeding in a short time. The device including the tissue and the lysine powder is able to be withdrawn with the blood no longer flowing through the nose.
Additionally, there was still excess powder. The gauze was rolled up with the lysine powder at one end, and the lysine powder was inserted into the nose, then the gauze was released and allowed to expand and plug the nose.
FIG. 12—illustrate an embodiment of a method of making a blood coagulating device with a lysine reservoir. […] The gauze is not hemostatic (Walgreens Premium Rolled Gauze—for secure dressings and light absorption. The device is made by: forming an absorptive body to a size and shape of a sheet; placing lysine powder on a surface of the sheet, where the lysine may be anywhere, but shown to be placed along a center crease. Adhesive is used to stick the surface to itself when the substrate is folded at the center crease so that the folded body has the lysine at the fold. The additional adhesive is put on the surface that is showing, and the sheet is rolled into a cylindrical device. The device has the lysine in a multi-layered chamber with the lysine located at one end. […] The marked end of the controls is not inserted in the nose.

SMILES: NCCCC[C@H](N)C(=O)O [lysine]
- time until the nose bleed stopped (hemostat gauze (regenerated etherized and oxidized natural fiber cellulose) having about 250 mg lysine powder, slower bleed): within a minute
- time until the gauze could be removed (hemostat gauze having about 250 mg lysine powder, slower bleed): just over a minute
- effect on blood flow / bleeding (in words) (nose bleed): promotes clotting
- blood absorbed by the device (in words) (nose bleed, compared with control without lysine where stated): didn't absorb much blood
